In the supplement of paper PMC10949913:

What was measured:
Test in all cases: area under concentration-response curve (viability) (AUC (a.u.)); higher = less active
Details in all cases: 48 h
[1] = system: CU-ACC2
Procedure, shortened: (§1)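 In 1,536-well plates, 500–1,000 cells/well of three adrenocortical carcinoma cell lines in 5 µL medium received 23 nL of each library compound across 11 concentrations. At 48 h, CellTiter-Glo was incubated for 15 minutes at room temperature and luminescence measured. Per-plate normalisation used vehicle and empty-well controls, and only inhibitory or non-responding curve classes were kept when fitting concentration-response curves for AC50 and area under the curve.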

[2] = system: NCI-H295R
Procedure, shortened: as §1

[3] = system: CU-ACC1
Procedure, shortened: as §1

Structure (SMILES) | area under concentration-response curve [1] | area under concentration-response curve [2] | area under concentration-response curve [3]
NCCCC(O)(P(=O)([O-])O)P(=O)(O)O | 529 | 472 | 511
Cc1ccc(C)c(OCCCC(C)(C)C(=O)O)c1 | 661 | 572 | 569
CCCCCCCCCC(=O)N[C@@H](Cc1c[nH]c2ccccc12)C(=O)N[C@H](CC(N)=O)C(=O)N[C@@H](CC(=O)O)C(=O)N[C@@H]1C(=O)NCC(=O)N[C@@H](CCCN)C(=O)N[C@@H](CC(=O)O)C(=O)N[C@H](C)C(=O)N[C@@H](CC(=O)O)C(=O)NCC(=O)N[C@H](CO)C(=O)N[C@@H]([C@@H](C)CC(=O)O)C(=O)N[C@@H](CC(=O)c2ccccc2N)C(=O)O[C@@H]1C | 606 | 496 | 485
CN(C(=O)CNC(=O)/C=C/c1cccc(Cl)c1)C1CC[S+](=O)([O-])CC1 (stereo not given) | 540 | 465 | 479
Cc1noc2c1-c1ccccc1C(c1ccc(Cl)cc1)=N[C@H]2CC(N)=O | 568 | 466 | 495
CN(C)C1=CC(=CC=C1)C\2=C\3C(=O)N(NC3=C/C(=O)N2C)C4=CC=CC=C4Cl | 512 | 533 | 513
COc1nc(C)cnc1N[S+](=O)([O-])c1cccnc1-c1ccc(-c2nnco2)cc1 | 600 | 509 | 520
CCc1nc(N)nc(N)c1-c1ccc(Cl)cc1 | 564 | 521 | 483
COc1cc2ncnc(Nc3ccc(O)c(Br)c3)c2cc1OC | 602 | 528 | 479
Cn1c(Nc2ccc(C(F)(F)F)cc2)nc2cc(Oc3ccnc(-c4nc(C(F)(F)F)c[nH]4)c3)ccc21 | 508 | 469 | 369
CN(C)CC(C)(C)CNc1nn2c(-c3ccccc3)nnc2cc1C1CCC1 | 566 | 469 | 473
C\C1=C(/C)C(=O)\C(=C(\C)C1=O)C(CCCCCC(O)=O)C2=CC=CC=C2 (stereo not given) | 613 | 550 | 545
CSCC[C@@H](NC(=O)[C@@H](Cc1ccccc1)NC(=O)CNC(=O)CNC(=O)[C@@H](N)Cc1ccc(O)cc1)C(=O)O | 616 | 566 | 535
CC1(C)S[C@H]2[C@H](NC(=O)[C@@H](N)c3ccc(O)cc3)C(=O)N2[C@H]1C(=O)O | 597 | 545 | 511
CC(=O)N1CCC[C@H]1C(=O)N[C@@H](Cc1c[nH]cn1)C(=O)N[C@@H](CO)C(=O)N[C@@H](CS)C(=O)N[C@@H](CC(N)=O)C(N)=O | 527 | 498 | 382
CO[C@H]1O[C@@H]2O[C@@]3(C)CC[C@H]4[C@H](C)CC[C@@H]([C@H]1C)[C@@]24OO3 | 553 | 506 | 470
Cc1c(OCC(F)(F)F)ccnc1C[S+]([O-])c1nc2ccccc2[nH]1 (stereo not given) | 624 | 571 | 526
Cc1noc(-c2ccc(CSCCC(=O)O)cc2)c1NC(=O)OC(C)c1ccccc1Cl (stereo not given) | 557 | 505 | 469
CC(NC1=NC=NC2=C1[NH]C=N2)\C3=C\C4=C(C(=CC=C4)Cl)C(=O)N3C5=CC=CC=C5 (stereo not given) | 569 | 580 | 432
COc1ccc(-c2ccc3cc(C(=O)O)ccc3c2)cc1C12CC3CC(CC(C3)C1)C2 | 518 | 479 | 477
NCC/1=C/NC(=S)N1[C@H]2CCC3=C(F)C=C(F)C=C3C2 | 547 | 550 | 495
COc1cc2c(NC3CCN(C4CCCCC4)CC3)nc(N3CCCN(C(C)C)CC3)nc2cc1OCCCN1CCCCC1 | 562 | 519 | 534
COc1ccc(Cl)c(Nc2nc3ccccc3nc2N[S+](=O)([O-])c2cccc(NC(=O)C(C)(C)N)c2)c1 | 536 | 439 | 459

Structure (SMILES) | area under concentration-response curve [1] | area under concentration-response curve [2] | area under concentration-response curve [3]
CC(C)C[C@@H](N)[C@H](O)C(=O)N[C@H](C(=O)N[C@H](C(=O)N[C@@H](CC(=O)O)C(=O)O)C(C)C)C(C)C | 530 | 549 | 544
COc1cc2ncnc(Nc3cccc(Br)c3)c2cc1OC | 583 | 527 | 395
C[C@@H]1CCN(C(=O)N2CCCC2)C[C@@H]1N(C)c1ncnc2[nH]ccc12 | 562 | 505 | 477
CNc1nc(C)nc(N[C@H]2CCC[C@@H](C(=O)NCc3ccc(C#N)cc3C(F)(F)F)C2)n1 | 593 | 496 | 497
CN1C(=O)C(Cc2c[nH]c3ccccc23)NC1=S (stereo not given) | 639 | 568 | 543
O=C1c2ccccc2-c2n[nH]c3cccc1c23 | 587 | 530 | 494
CCC(C)CCCCC(=O)N[C@@H](CCN)C(=O)NC(C(=O)N[C@H](CCN)C(=O)N[C@@H]1CCNC(=O)C([C@@H](C)O)NC(=O)[C@@H](CCN)NC(=O)[C@@H](CCN)NC(=O)[C@@H](CC(C)C)NC(=O)[C@H](Cc2ccccc2)NC(=O)[C@H](CCN)NC1=O)[C@@H](C)O (stereo not given in full) | 631 | 553 | 505
CCC[C@H](N[C@@H](C)C(=O)N1[C@H](C(=O)O)C[C@@H]2CCCC[C@@H]21)C(=O)OCC | 589 | 548 | 531
CC1=C(CC(=O)O)c2cc(F)ccc2/C1=C\c1ccc([S+](C)[O-])cc1 (stereo not given) | 647 | 573 | 526
Cc1[nH]nc(C(F)(F)F)c1Cc1sc2c(c1C(=O)N1C[C@](C)(O)CO1)c(=O)n(C)c(=O)n2C(C)C | 552 | 509 | 431
CC(N)C12CC3CC(CC(C3)C1)C2 (stereo not given) | 523 | 494 | 507
O=C(O)C[C@H]1CC[C@H](c2ccc(-c3ccc(Nc4ccc(C(F)(F)F)nc4)cn3)cc2)CC1 | 580 | 538 | 504
C/C1=C/C[C@@H](/C(C)=C/c2csc(C)n2)OC(=O)C[C@H](O)C(C)(C)C(=O)[C@H](C)[C@@H](O)[C@@H](C)CCC1 | 567 | 426 | 480
Nc1ncc(C(=O)NC2CN(C(=O)C3CC3)C2)c2ccc(-c3cccc(F)c3)nc12 | 647 | 574 | 538
Cc1cccc(-c2nn3c(c2-c2ccnc4ccc(C(N)=O)cc24)CCC3)n1 | 628 | 575 | 546
CCNCc1nc2c(N)nc3ccccc3c2n1CC(C)(C)O | 556 | 516 | 500
c1ccc2c(CN3CCNCC3)cccc2c1 | 647 | 580 | 525
O=C(NCCCNc1nc(Nc2cccc(NC(=O)N3CCCC3)c2)ncc1I)c1cccs1 | 482 | 539 | 498
C\C1=C(\C=C(\C#N)C(=O)N1)C2=CC=NC=C2 | 515 | 543 | 532
NCC[S+](=O)([O-])O | 585 | 488 | 495
O=C(O)c1ccccc1C(=O)Nc1ccc(-c2ccccc2)cc1 | 580 | 491 | 514
CCC(C)(Oc1ccc(C2(c3ccc(OC(C)(CC)C(=O)O)cc3)CCCCC2)cc1)C(=O)O (stereo not given) | 572 | 470 | 500
